Consider four compounds from patent publication US11464749B2, “Bismuth-thiol compositions and methods of use” (Microbion Corporation, priority 2018, dated 2022).

A short description of series [1]: Particle size of BisEDT microparticles (Nanosizer/Zetasizer). The series is classed as physicochemical. As to conditions: resuspended in 2% Pluronic F-68, sonicated. On the procedure: The dried particulate matter was characterized to assess the particle size properties. Briefly, microparticles were resuspended in 2% Pluronic® F-68 (BASF, Mt. Olive, N.J.) and the suspension was sonicated for 10 minutes in a water bath sonicator at standard setting prior to analysis using a Nanosizer/Zetasizer Nano-S particle analyzer (model ZEN1600 (without zeta-potential measuring capacity), Malvern Instruments, Worcestershire, UK) according to the manufacturer's recommendations.

Series [2] can be described thus: Phase 1 human clinical studies, topical tolerability. The format is in vivo. The conditions noted are these: humans.
For a further series, the system named is Escherichia coli. As to conditions: E. coli MMX 102 (ATCC 25922); CLSI QC ranges shown in parenthesis; cited from earlier work.
The subject of series [3] is P. aeruginosa. Put plainly: Broth microdilution MIC (Example 10). As to conditions: initial MIC testing. For orientation: Broth dilution looks for growth in wells or tubes with falling amounts of substance.
For the next series, the system named is C. albicans. The experiment in a line: Broth microdilution MIC, yeast (Example 11). The format is cell-based.
For series [4], the system named is P. aeruginosa and A. baumannii. Put plainly: Broth microdilution MIC (Example 11). As to conditions: read-out: MIC values.
Series [5] concerns vancomycin-intermediate Staphylococcus aureus (VISA). Put plainly: Broth microdilution MIC (Example 12). The conditions noted are these: Staphylococcus aureus.
The test system of series [6] is P. aeruginosa. The experiment in a line: MIC against CF bacterial strains (Example 5). As to conditions: Pseudomonas aeruginosa.
Another series relates to Enterococcus spp. Put plainly: Broth microdilution MIC (Example 11). The conditions noted are these: read-out: MIC values.
The subject of a further series is anaerobes. Put plainly: Agar dilution MIC (Example 11). The format is cell-based. As to conditions: read-out: MIC values. On the technique in general: In agar dilution the substance is mixed into plates at graded concentrations.
Series [7] deals with B. cepacia (cepacia complex). The experiment in a line: MIC against CF bacterial strains (Example 5). The series is classed as cell-based. As to conditions: Burkholderia cepacia. On the procedure:
(§1) A range of CF-isolated strains of Mycobacterium avium and Mycobacterium abscessus were included; which allows for understanding of the activity against non-tubercular Mycobacteria (NTM). Two distinct bismuth-thiol compounds were evaluated, including BisEDT and BisBDT. […] The CF-isolates of greater clinical relevance, including both M abscessus spp. and Burkholderia spp., were both consistently found to be much more susceptible to BisEDT and BisBDT.

Series [8] has as its system B. cepcacia complex (not further speciated). The experiment in a line: MIC against CF bacterial strains (Example 5). The series is classed as cell-based. As to conditions: beta lactam-S, TMP/SMX-S. Here is the method: as §1
In series [9] the test system is B. dolosa (cepacia complex). Put plainly: MIC against CF bacterial strains (Example 5). The conditions noted are these: Burkholderia dolosa; strain BC 11, CF isolate, beta lactam-R, TMP/SMX-S, FQ-R. The series is classed as cell-based. Here is the method: as §1
The subject of series [10] is B. multivorans (cepacia complex). Put plainly: MIC against CF bacterial strains (Example 5). The conditions noted are these: Burkholderia multivorans. The format is cell-based. Here is the method:
as §1

SMILES strings stand for the structures. In brackets after ≈: the same amount, converted by molar mass.

On to `C1C[S][Bi]([S]CC[S][Bi]2[S]CC[S]2)[S]1` [BisEDT, bismuth-1,2-ethanedithiol], for which the “peak volumetric mean diameter (VMD) of microparticles” value in series [1] is “about 1.3 microns”. For the same compound, in series [2] (6 hours), the “concentration well-tolerated when administered topically” value is reported as “up to 2500 μg/cm^2”. For the same compound, in series [2] (over 21 days continuous exposure, normal and abraded skin), the “concentration tolerated when administered topically” value was “up to 75 μg/cm^2”.

As to `C[C@@H](O)[C@H]1C(=O)N2C(C(=O)O)=C(S[C@@H]3CN[C@H](C(=O)N(C)C)C3)[C@H](C)[C@H]12` [Meropenem, reference compound], the “CLSI QC range of MIC” value in the series on Escherichia coli is “(0.008-0.06) μg/mL”.

As for `C[C@@H](O)[C@H]1C(=O)N2C(C(=O)O)=C(S[C@@H]3CN[C@H](C(=O)N(C)C)C3)[C@H](C)[C@H]12` [MEM], the MIC in the series on P. aeruginosa [3] (P. aeruginosa isolate 103) stood at 1 mg/L (≈ 2.61 µM); with P. aeruginosa [3] (P. aeruginosa isolate 1497 (TOB-R, AMK-R, CIP-I, AZT-R, COL-R)), 0.06 mg/L (≈ 0.156 µM); against P. aeruginosa [3] (P. aeruginosa isolate 1530 (TOB-R, AMK-R, CIP-R)) it was 0.5 mg/L (≈ 1.3 µM); in the series on P. aeruginosa [3] (P. aeruginosa isolate 1553 (TOB-R, AMK-R, CIP-R)), 0.5 mg/L (≈ 1.3 µM); in the series with P. aeruginosa [3] (P. aeruginosa isolate 6322 (MEM-R, TOB-R, AMK-R, CIP-R, AZT-R)), 16 mg/L (≈ 41.7 µM); against P. aeruginosa [3] (P. aeruginosa isolate 6977 (MEM-I, TOB-R, CIP-R, AZT-I)), 4 mg/L (≈ 10.4 µM). Moreover, the MIC with P. aeruginosa [3] (P. aeruginosa isolate 7745 (MEM-R, CIP-R, AZT-R)) worked out at 16 mg/L (≈ 41.7 µM); against P. aeruginosa [3] (P. aeruginosa isolate 7754 (MEM-R, TOB-R, CIP-R, AZT-I)) it was 32 mg/L (≈ 83.4 µM); against P. aeruginosa [3] (P. aeruginosa isolate 7762 (MEM-I, CIP-I)) it was 4 mg/L (≈ 10.4 µM); against P. aeruginosa [3] (P. aeruginosa isolate 7871 (MEM-R, AZT-I)), 8 mg/L (≈ 20.9 µM); in the series on P. aeruginosa [3] (P. aeruginosa isolate 7874), 1 mg/L (≈ 2.61 µM); in the series with P. aeruginosa [3] (P. aeruginosa isolate 7886 (MEM-R, CIP-R, AZT-R)), 32 mg/L (≈ 83.4 µM). The MIC against P. aeruginosa [3] (P. aeruginosa isolate 8797 (MEM-R, TOB-R, AMK-R, CIP-R, AZT-R, COL-R)) stood at 32 mg/L (≈ 83.4 µM); in the series with P. aeruginosa [3] (P. aeruginosa isolate 8798 (MEM-R, TOB-R, AMK-R, CIP-R, AZT-R, COL-R)) it was 64 mg/L (≈ 167 µM); against P. aeruginosa [3] (P. aeruginosa isolate 9108 (CIP-R, AZT-I)), 0.5 mg/L (≈ 1.3 µM).

`CC(S)C(C)S.[Bi]` (centres unmarked) [BisBDT, bismuth-2,3-butanedithiol]: the MIC against C. albicans (C. albicans MMX 7055, Sensitive, 48 hr) was 2, 2 μg/mL; against C. albicans (Candida albicans, 24 h), 2 mg/L; with C. albicans (Candida albicans, 48 h), 2 mg/L; in series [4], 0.5 to 2 mg/L; in series [5] (NRS1 / VISA), 0.12 mg/L; in series [5] (NRS2 / VISA), not above 0.06 mg/L. In addition, the MIC was 0.25 mg/L in [5] (NRS3 / VISA); 0.25 mg/L in series [5] (NRS4 / VISA); 0.12 mg/L in [5] (NRS13 / VISA); 0.25 mg/L in series [5] (NRS18 / VISA); 0.25 mg/L in [5] (NRS22 / VISA); 1 mg/L in series [5] (NRS24 / VISA). The MIC was 0.25 mg/L in [5] (NRS27 / VISA); 1 mg/L in the series on P. aeruginosa [6] (strain AGR1); 1 mg/L against P. aeruginosa [6] (strain AGR14, Multi-drug resistant); 1 mg/L against P. aeruginosa [6] (strain MR14, Multi-drug resistant); 0.25 to 1 mg/L in the series with Enterococcus spp.; 1 to 4 mg/L in the series with anaerobes. Also, the MIC is 8 mg/L in [7] (strain BC17); 4 mg/L in series [7] (strain BC 17, CF isolate, beta lactam-R, TMP/SMX-R, FQ-R); 0.5 mg/L in series [8] (strain BC 9, CF isolate, FQ-R); 1 mg/L in series [8] (strain PC 213, CF isolate, FQ-S); 0.5 mg/L in [9]; 2 mg/L in series [10] (strain BC 5, CF isolate, beta lactam-S, TMP/SMX-S, FQ-I). In addition, in [10] (strain BC5b), the MIC was found to be 1 mg/L.

Broadly, the MIC is the lowest concentration found to suppress growth.
